# According to patent US10626144B2, “Peptide derivatives and uses thereof” (Nosopharm, priority 2014, dated 2020):
# Read-outs that look alike come from different tables or passages of the source. Square brackets hold non-standard residues; d marks the D form. Peptide text beside a SMILES is read from it. * marks the point of attachment. ξ: configuration not given here. Phe(3,4-(OMe)2) = COc1ccc(C[C@H](N)C(=O)O)cc1OC; Dab(3S-OH) = NC[C@H](O)[C@H](N)C(=O)O; Lys(5ξ-OH) = NCC(O)CC[C@H](N)C(=O)O; ΔZArg = N=C(N)NCC/C=C(\N)C(=O)O; dOrn = NCCC[C@@H](N)C(=O)O; NH(CH2)4NH2 = NCCCCN*
# Columns and labels:
# [1] = system: Klebsiella pneumoniae ATCC BAA2470; assay: Murine peritonitis/sepsis model with Odilorhabdin A (Example 13); type: in vivo, CD-1 mice
# [2] = target: N-type calcium channels (Cav2.2) (Rattus norvegicus (Rat), UniProt Q02294); assay: biochemical; type: binding
# Ec #2 (MIN) = assay: MIC / resistance profile, multidrug-resistant strain; settings: multidrug-resistant E. coli MIN
# [3] = system: Staphylococcus aureus ATCC 13709; assay: MIC, broth microdilution (CLSI), reference strain; settings: CAMHB
# Ec #3 (EGB957) = assay: MIC / resistance profile, multidrug-resistant strain; settings: multidrug-resistant E. coli EGB957
# [4] = system: Acinetobacter baumannii ATCC 19606; assay: MIC, broth microdilution (CLSI), reference strain; settings: CAMHB
# Ec #5 (DSM22315) = assay: MIC / resistance profile, multidrug-resistant strain; settings: multidrug-resistant E. coli DSM22315
# [5] = system: Escherichia coli ATCC 25922; assay: MIC, broth microdilution (CLSI), reference strain; settings: CAMHB
# Ec #1 (NCTC13476) = assay: MIC / resistance profile, multidrug-resistant strain; settings: multidrug-resistant E. coli NCTC13476
# Ec #4 (GUE) = assay: as above; settings: multidrug-resistant E. coli GUE
# [6] = system: Pseudomonas aeruginosa ATCC 27853; assay: MIC, broth microdilution (CLSI), reference strain; settings: CAMHB
# [7] = Tolerability in mice, single i.v. bolus dose; settings: female, CD-1, mouse, in vivo, iv
# Kp #4 (ATCC BAA1904) = assay: MIC / resistance profile, multidrug-resistant strain; settings: multidrug-resistant K. pneumoniae ATCC BAA1904
# [8] = system: Klebsiella pneumoniae ATCC 43816; assay: MIC, broth microdilution (CLSI), reference strain; settings: CAMHB
# Kp #3 (A33504) = assay: MIC / resistance profile, multidrug-resistant strain; settings: multidrug-resistant K. pneumoniae A33504
# Kp #5 (6560) = assay: as above; settings: multidrug-resistant K. pneumoniae 6560
# Kp #1 (NCTC13439) = assay: as above; settings: multidrug-resistant K. pneumoniae NCTC13439
# [9] = system: Klebsiella pneumoniae ATCC BAA2470; assay: Murine peritonitis/sepsis model with analog 24.66 (Example 12); settings: for Alive animals at 24 hrs: N=8
# Procedure: Female CD-1 mice (weight, 25 g; Charles River) were used throughout the study. Six groups of 8 mice were inoculated by intraperitoneal (i.p.) injection of 0.5 ml Klebsiella pneumoniae ATCC BAA2470 suspension containing 10^8.1 CFU/ml in 0.9% sterile saline and 5% (wt/vol) mucin. One hour after bacterial challenge on day 0, mice were treated by intravenous (i.v.) route with the antibiotic solutions formulated in 0.9% sterile saline.
# One group was administered with single bolus dose of tigecycline at 20 mg/kg. One group received no treatment.
# Kp #2 (DUB) = assay: MIC / resistance profile, multidrug-resistant strain; settings: multidrug-resistant K. pneumoniae DUB
# [10] = value in brackets, rat cerebral cortex, [125I]ω-conotoxin GVIA 0.001 nM, read-out: IC50 Cav2.2
compound,measurement,setting,value
N=C(N)NCC/C=C(\NC(=O)[C@H](CCC(O)CN)NC(=O)[C@H](Cc1c[nH]cn1)NC(=O)[C@@H]1CCCN1C(=O)[C@@H](CCCN)NC(=O)CNC(=O)[C@@H](NC(=O)[C@@H](NC(=O)[C@@H](N)CCCCN)[C@@H](O)CN)[C@@H](O)CN)C(=O)N[C@@H](CCC(O)CN)C(=O)NCCCCN (stereo partly drawn) [Odilorhabdin A] (H-K[Dab(3S-OH)][Dab(3S-OH)]G[dOrn]PH[Lys(5ξ-OH)][ΔZArg][Lys(5ξ-OH)]-{NH(CH2)4NH2}; N-terminus and C-terminus assumed),Alive animals at 24 hrs,"[1]; 5 mg/kg i.v. single bolus, n=6",0
same,Alive animals at 24 hrs,"[1]; 10 mg/kg i.v. single bolus, n=8",2
same,Alive animals at 24 hrs,"[1]; 15 mg/kg i.v. single bolus, n=7",4
same,Alive animals at 24 hrs,"[1]; 20 mg/kg i.v. single bolus, n=8",6
same,ED50,"[1]; single i.v. bolus one hour after i.p. challenge, 10^7.7 CFU/ml, observed 24 hours",13.9 mg/kg
same,IC50,[2]; [10],25 nM
"COc1ccc(C[C@H](NC(=O)[C@@H]2CCCN2C(=O)[C@@H](CCCN)NC(=O)CNC(=O)[C@H](C)NC(=O)[C@@H](NC(=O)[C@@H](N)CCCCN)[C@@H](O)CN)C(=O)N[C@@H](CCCCN)C(=O)N/C(=C\CCNC(=N)N)C(=O)O)cc1OC [24.85] (H-K[Dab(3S-OH)]AG[dOrn]P[Phe(3,4-(OMe)2)]K[ΔZArg]-OH)",MIC Ec#2,Ec #2 (MIN),+ (≤32 μg/mL)
same,Sa: MIC Staphylococcus aureus ATCC 13709,[3],+ (≤32 μg/mL)
same,MIC Ec#3,Ec #3 (EGB957),+ (≤32 μg/mL)
same,Ab: MIC Acinetobacter baumannii ATCC 19606,[4],− (>32 μg/mL)
same,MIC Ec#5,Ec #5 (DSM22315),+ (≤32 μg/mL)
same,Ec: MIC Escherichia coli ATCC 25922,[5],++ (≤8 μg/mL)
same,MIC Ec#1,Ec #1 (NCTC13476),++ (≤8 μg/mL)
same,MIC Ec#4,Ec #4 (GUE),++ (≤8 μg/mL)
same,IC50,[2],> 300 nM
same,IC50,[2]; [10],1200 nM
same,Pa: MIC Pseudomonas aeruginosa ATCC 27853,[6],− (>32 μg/mL)
C[C@H](NC(=O)[C@@H](NC(=O)[C@@H](N)CCCCN)[C@@H](O)CN)C(=O)NCC(=O)N[C@H](CCCN)C(=O)N1CCC[C@H]1C(=O)N[C@@H](Cc1cnc[nH]1)C(=O)N[C@@H](CCCCN)C(=O)N/C(=C\CCNC(=N)N)C(=O)O [24.66] (H-K[Dab(3S-OH)]AG[dOrn]PHK[ΔZArg]-OH),LD50 at 5 days,[7],494 mg/kg
same,MIC Kp#4,Kp #4 (ATCC BAA1904),++ (≤8 μg/mL)
same,Sa: MIC Staphylococcus aureus ATCC 13709,[3],+ (≤32 μg/mL)
same,Kp: MIC Klebsiella pneumoniae ATCC 43816,[8],++ (≤8 μg/mL)
same,MIC Kp#3,Kp #3 (A33504),++ (≤8 μg/mL)
same,MIC Ec#3,Ec #3 (EGB957),+ (≤32 μg/mL)
same,Ab: MIC Acinetobacter baumannii ATCC 19606,[4],− (>32 μg/mL)
same,MIC Kp #5,Kp #5 (6560),++ (≤8 μg/mL)
same,MIC Kp#1,Kp #1 (NCTC13439),++ (≤8 μg/mL)
same,MIC Ec#5,Ec #5 (DSM22315),+ (≤32 μg/mL)
same,Ec: MIC Escherichia coli ATCC 25922,[5],+ (≤32 μg/mL)
same,MIC Ec#1,Ec #1 (NCTC13476),+ (≤32 μg/mL)
same,MIC Ec#4,Ec #4 (GUE),+ (≤32 μg/mL)
same,IC50,[2]; read-out: IC50 Cav2.2,> 300 nM
same,Alive animals at 24 hrs,[9]; 6 mg/kg i.v. single bolus,0
same,Alive animals at 24 hrs,[9]; 12.5 mg/kg i.v. single bolus,2
same,Alive animals at 24 hrs,[9]; 25 mg/kg i.v. single bolus,5
same,Alive animals at 24 hrs,[9]; 50 mg/kg i.v. single bolus,7
same,ED50,"[9]; single i.v. bolus one hour after i.p. challenge, 10^8.1 CFU/ml, observed 24 hours",20.4 mg/kg
same,Pa: MIC Pseudomonas aeruginosa ATCC 27853,[6],− (>32 μg/mL)
same,MIC Kp#2,Kp #2 (DUB),++ (≤8 μg/mL)
"CN(C)c1cc(NC(=O)CNC(C)(C)C)c(O)c2c1C[C@H]1C[C@H]3[C@H](N(C)C)C(O)=C(C(N)=O)C(=O)[C@@]3(O)C(O)=C1C2=O [Tigecycline, tigecycline, reference compound]",Alive animals at 24 hrs,"[1]; 15 mg/kg i.v. single bolus, n=8 (tigecycline)",8
same,Alive animals at 24 hrs,[9]; 20 mg/kg i.v. single bolus,8
